According to patent publication US20250353891A1 (MEDIMMUNE LIMITED, priority 2022, published 2025):
Starred links: 1 amine or outer side, 2 acyl side, 3 side chain; linkers in the order of their positions; H or OH if unused. Non-standard residues stand in square brackets, D forms with d. Residues, ends and D or L forms follow the SMILES beside them. Groups on a side chain read outwards from the residue. *: point of attachment. Heptadecanoyl = CCCCCCCCCCCCCCCCC(=O)*; γGlu = O=C(O)[C@H](CCC(=O)[*:2])N[*:1]; Stearoyl = CCCCCCCCCCCCCCCCCC(=O)*; Palmitoyl = CCCCCCCCCCCCCCCC(=O)*; αMeF = C[C@](N)(Cc1ccccc1)C(=O)O; PEG2 = NCCOCCOCCC(=O)O; Aib = CC(C)(N)C(=O)O

Key:
[1] = target: human GLP-1 receptor (hGLP-1R) (Homo sapiens, UniProt P43220); assay: cAMP production (HTRF) in CHO cells expressing hGLP-1R; format: cell-based; parameters: expressed in transfected cells; settings: for EC50: Table 6, peptides modified at position 17, cAMP in CHO hGLP-1R cells, geometric mean, read-out: hGLP-1R EC50; for % Relative Potency Ratio: Table 6, % GLP-1R activity relative to GLP-1 / % GlucR activity relative to glucagon
Summary of the method: (§1)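 Read-out: HTRF cAMP (anti-cAMP cryptate donor, cAMP-d2 acceptor in conjugate/lysis buffer), converted to % Delta F and fitted by 4-parameter logistic for EC50. Cell densities were 1×10^5 cells/mL (hGLP-1R) or 2×10^5 cells/mL (hGCGR). Stimulation lasted 30 min at room temperature.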

[2] = target: human glucagon receptor (hGCGR) (Homo sapiens, UniProt P47871); assay: cAMP production (HTRF) in CHO cells expressing hGCGR; format: cell-based; parameters: expressed in transfected cells; settings: Table 6, peptides modified at position 17; cAMP in CHO hGCGR cells; geometric mean; read-out: hGluc-R EC50
Summary of the method: as §1

human glucagon receptor (hGCGR), sequence (P47871 26-477): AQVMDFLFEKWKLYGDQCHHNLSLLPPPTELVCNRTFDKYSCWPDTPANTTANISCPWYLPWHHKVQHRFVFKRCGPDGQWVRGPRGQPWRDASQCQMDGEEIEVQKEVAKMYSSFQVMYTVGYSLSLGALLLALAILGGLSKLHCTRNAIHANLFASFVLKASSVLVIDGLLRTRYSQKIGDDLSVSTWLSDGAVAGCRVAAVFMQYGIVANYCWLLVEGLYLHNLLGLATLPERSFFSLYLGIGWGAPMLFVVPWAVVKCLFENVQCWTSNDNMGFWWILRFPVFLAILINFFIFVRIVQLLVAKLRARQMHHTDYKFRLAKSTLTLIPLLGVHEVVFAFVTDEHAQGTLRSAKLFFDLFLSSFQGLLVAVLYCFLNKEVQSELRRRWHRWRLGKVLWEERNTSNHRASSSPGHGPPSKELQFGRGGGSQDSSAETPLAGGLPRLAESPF
human GLP-1 receptor (hGLP-1R), sequence (P43220 24-463): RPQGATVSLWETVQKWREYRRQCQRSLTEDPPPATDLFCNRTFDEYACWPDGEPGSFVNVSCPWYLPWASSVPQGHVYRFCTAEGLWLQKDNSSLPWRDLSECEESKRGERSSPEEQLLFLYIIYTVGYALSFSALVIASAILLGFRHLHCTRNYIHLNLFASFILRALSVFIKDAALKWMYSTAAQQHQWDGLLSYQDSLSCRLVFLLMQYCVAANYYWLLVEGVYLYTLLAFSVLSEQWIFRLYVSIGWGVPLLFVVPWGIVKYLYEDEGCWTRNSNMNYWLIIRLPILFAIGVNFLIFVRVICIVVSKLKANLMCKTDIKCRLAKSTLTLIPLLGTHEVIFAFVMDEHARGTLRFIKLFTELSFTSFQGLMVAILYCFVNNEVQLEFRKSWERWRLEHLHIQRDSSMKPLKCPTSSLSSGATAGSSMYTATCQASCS

SMILES | EC50 [1] | % Relative Potency Ratio [1] | EC50 [2]
CCCCCCCCCCCCCCCCCC(=O)N[C@@H](CCC(=O)N[C@@H](CCC(=O)NCCOCCOCCC(=O)NCCOCCOCCC(=O)NCCCC[C@H](NC(=O)[C@H](CO)NC(=O)[C@H](CC(=O)O)NC(=O)[C@H](CC(C)C)NC(=O)[C@](C)(Cc1ccccc1)NC(=O)[C@H](CCCCN)NC(=O)[C@H](CO)NC(=O)[C@@H](NC(=O)[C@H](CC(=O)O)NC(=O)[C@H](CO)NC(=O)[C@@H](NC(=O)[C@](C)(Cc1ccccc1)NC(=O)[C@H](CO)NC(=O)CNC(=O)[C@H](CCC(N)=O)NC(=O)[C@H](CO)NC(=O)[C@@H](N)Cc1c[nH]cn1)[C@@H](C)O)C(C)C)C(=O)N[C@@H](C)C(=O)N[C@@H](C)C(=O)N[C@@H](CCC(N)=O)C(=O)N[C@@H](CC(=O)O)C(=O)N[C@@](C)(Cc1ccccc1)C(=O)N[C@H](C(=O)N[C@@H](CCC(N)=O)C(=O)NC(C)(C)C(=O)N[C@@H](CC(C)C)C(=O)N[C@@H](CC(C)C)C(=O)N[C@@H](CC(N)=O)C(=O)N[C@H](C(N)=O)[C@@H](C)O)C(C)C)C(=O)O)C(=O)O [Peptide 84] (H-HSQGS[αMeF]TSDVSK[αMeF]LDSK([PEG2-PEG2-γGlu-γGlu-Stearoyl])AAQD[αMeF]VQ[Aib]LLNT-NH2) | 2.8 pM | 31.7 | 44.9 pM
CCCCCCCCCCCCCCCCCC(=O)N[C@@H](CCC(=O)N[C@@H](CCC(=O)NCCOCCOCCC(=O)NCCOCCOCCC(=O)NCCCC[C@H](NC(=O)[C@H](CO)NC(=O)[C@H](CC(=O)O)NC(=O)[C@H](CC(C)C)NC(=O)[C@](C)(Cc1ccccc1)NC(=O)[C@H](CCCCN)NC(=O)[C@H](CO)NC(=O)[C@@H](NC(=O)[C@H](CC(=O)O)NC(=O)[C@H](CO)NC(=O)[C@@H](NC(=O)[C@](C)(Cc1ccccc1)NC(=O)[C@H](CO)NC(=O)CNC(=O)[C@H](CCC(N)=O)NC(=O)[C@H](CO)NC(=O)[C@@H](N)Cc1c[nH]cn1)[C@@H](C)O)C(C)C)C(=O)N[C@@H](C)C(=O)N[C@@H](C)C(=O)N[C@@H](CCC(N)=O)C(=O)N[C@@H](CC(=O)O)C(=O)N[C@@](C)(Cc1ccccc1)C(=O)N[C@H](C(=O)N[C@@H](CCC(N)=O)C(=O)NC(C)(C)C(=O)N[C@H](C(=O)N[C@H](C(=O)N[C@@H](CCC(=O)O)C(=O)NCC(=O)NCC(N)=O)C(C)C)C(C)C)C(C)C)C(=O)O)C(=O)O [Peptide 85] (H-HSQGS[αMeF]TSDVSK[αMeF]LDSK([PEG2-PEG2-γGlu-γGlu-Stearoyl])AAQD[αMeF]VQ[Aib]VVEGG-NH2; N-terminus assumed) | 1.04 pM | 90.9 | 47.7 pM
CCCCCCCCCCCCCCCCCC(=O)N[C@@H](CCC(=O)N[C@@H](CCC(=O)NCCOCCOCCC(=O)NCCOCCOCCC(=O)NCCCC[C@H](NC(=O)[C@H](CO)NC(=O)[C@H](CC(=O)O)NC(=O)[C@H](CC(C)C)NC(=O)[C@](C)(Cc1ccccc1)NC(=O)[C@H](CCCCN)NC(=O)[C@H](CO)NC(=O)[C@@H](NC(=O)[C@H](CC(=O)O)NC(=O)[C@H](CO)NC(=O)[C@@H](NC(=O)[C@](C)(Cc1ccccc1)NC(=O)[C@H](CO)NC(=O)CNC(=O)[C@H](CCC(N)=O)NC(=O)[C@H](CO)NC(=O)[C@@H](N)Cc1c[nH]cn1)[C@@H](C)O)C(C)C)C(=O)N[C@@H](C)C(=O)N[C@@H](C)C(=O)N[C@@H](CCC(N)=O)C(=O)N[C@@H](CC(=O)O)C(=O)N[C@@](C)(Cc1ccccc1)C(=O)N[C@H](C(=O)N[C@@H](CCC(N)=O)C(=O)NC(C)(C)C(=O)N[C@H](C(=O)N[C@@H](C)C(=O)N[C@@H](CC(N)=O)C(N)=O)[C@@H](C)CC)C(C)C)C(=O)O)C(=O)O [Peptide 86] (H-HSQGS[αMeF]TSDVSK[αMeF]LDSK([PEG2-PEG2-γGlu-γGlu-Stearoyl])AAQD[αMeF]VQ[Aib]IAN-NH2; N-terminus assumed) | – | 16.6 | 6.46 pM
CCCCCCCCCCCCCCCC(=O)N[C@@H](CCC(=O)N[C@@H](CCC(=O)NCCOCCOCCC(=O)NCCOCCOCCC(=O)NCCCC[C@H](NC(=O)[C@H](CO)NC(=O)[C@H](CC(=O)O)NC(=O)[C@H](CC(C)C)NC(=O)[C@](C)(Cc1ccccc1)NC(=O)[C@H](CCCCN)NC(=O)[C@H](CO)NC(=O)[C@@H](NC(=O)[C@H](CC(=O)O)NC(=O)[C@H](CO)NC(=O)[C@@H](NC(=O)[C@](C)(Cc1ccccc1)NC(=O)[C@H](CO)NC(=O)CNC(=O)[C@H](CCC(N)=O)NC(=O)[C@H](CO)NC(=O)[C@@H](N)Cc1c[nH]cn1)[C@@H](C)O)C(C)C)C(=O)N[C@@H](C)C(=O)N[C@@H](C)C(=O)N[C@@H](CCC(N)=O)C(=O)N[C@@H](CC(=O)O)C(=O)N[C@@](C)(Cc1ccccc1)C(=O)N[C@H](C(=O)N[C@@H](CCC(N)=O)C(=O)NC(C)(C)C(=O)N[C@H](C(=O)N[C@@H](C)C(=O)N[C@@H](CC(N)=O)C(N)=O)[C@@H](C)CC)C(C)C)C(=O)O)C(=O)O [Peptide 87] (H-HSQGS[αMeF]TSDVSK[αMeF]LDSK([PEG2-PEG2-γGlu-γGlu-Palmitoyl])AAQD[αMeF]VQ[Aib]IAN-NH2; N-terminus assumed) | 1.29 pM | 13.0 | 8.46 pM
CCCCCCCCCCCCCCCCC(=O)N[C@@H](CCC(=O)N[C@@H](CCC(=O)NCCOCCOCCC(=O)NCCOCCOCCC(=O)NCCCC[C@H](NC(=O)[C@H](CO)NC(=O)[C@H](CC(=O)O)NC(=O)[C@H](CC(C)C)NC(=O)[C@](C)(Cc1ccccc1)NC(=O)[C@H](CCCCN)NC(=O)[C@H](CO)NC(=O)[C@@H](NC(=O)[C@H](CC(=O)O)NC(=O)[C@H](CO)NC(=O)[C@@H](NC(=O)[C@](C)(Cc1ccccc1)NC(=O)[C@H](CO)NC(=O)CNC(=O)[C@H](CCC(N)=O)NC(=O)[C@H](CO)NC(=O)[C@@H](N)Cc1c[nH]cn1)[C@@H](C)O)C(C)C)C(=O)N[C@@H](C)C(=O)N[C@@H](C)C(=O)N[C@@H](CCC(N)=O)C(=O)N[C@@H](CC(=O)O)C(=O)N[C@@](C)(Cc1ccccc1)C(=O)N[C@H](C(=O)N[C@@H](CCC(N)=O)C(=O)NC(C)(C)C(=O)N[C@H](C(=O)N[C@@H](C)C(=O)N[C@@H](CC(N)=O)C(N)=O)[C@@H](C)CC)C(C)C)C(=O)O)C(=O)O [Peptide 88] (H-HSQGS[αMeF]TSDVSK[αMeF]LDSK([PEG2-PEG2-γGlu-γGlu-Heptadecanoyl])AAQD[αMeF]VQ[Aib]IAN-NH2; N-terminus assumed) | 1.04 pM | 12.3 | 6.47 pM
CCCCCCCCCCCCCCCC(=O)N[C@@H](CCC(=O)N[C@@H](CCC(=O)NCCOCCOCCC(=O)NCCOCCOCCC(=O)NCCCC[C@H](NC(=O)[C@H](CO)NC(=O)[C@H](CC(=O)O)NC(=O)[C@H](CC(C)C)NC(=O)[C@](C)(Cc1ccccc1)NC(=O)[C@H](CCCCN)NC(=O)[C@H](CO)NC(=O)[C@@H](NC(=O)[C@H](CC(=O)O)NC(=O)[C@H](CO)NC(=O)[C@@H](NC(=O)[C@](C)(Cc1ccccc1)NC(=O)[C@H](CO)NC(=O)CNC(=O)[C@H](CCC(N)=O)NC(=O)[C@H](CO)NC(=O)[C@@H](N)Cc1c[nH]cn1)[C@@H](C)O)C(C)C)C(=O)N[C@@H](C)C(=O)N[C@@H](C)C(=O)N[C@@H](CCC(N)=O)C(=O)N[C@@H](CC(=O)O)C(=O)N[C@@](C)(Cc1ccccc1)C(=O)N[C@H](C(=O)N[C@@H](CCC(=O)O)C(=O)NC(C)(C)C(=O)N[C@H](C(=O)N[C@@H](C)C(=O)N[C@@H](CC(N)=O)C(N)=O)[C@@H](C)CC)C(C)C)C(=O)O)C(=O)O [Peptide 90] (H-HSQGS[αMeF]TSDVSK[αMeF]LDSK([PEG2-PEG2-γGlu-γGlu-Palmitoyl])AAQD[αMeF]VE[Aib]IAN-NH2; N-terminus assumed) | 1.87 pM | 7.0 | 6.61 pM
CCCCCCCCCCCCCCCCCC(=O)N[C@@H](CCC(=O)N[C@@H](CCC(=O)NCCOCCOCCC(=O)NCCOCCOCCC(=O)NCCCC[C@H](NC(=O)[C@H](CO)NC(=O)[C@H](CC(=O)O)NC(=O)[C@H](CC(C)C)NC(=O)C(C)(C)NC(=O)[C@H](CCCCN)NC(=O)[C@H](CO)NC(=O)[C@@H](NC(=O)[C@H](CC(=O)O)NC(=O)[C@H](CO)NC(=O)[C@@H](NC(=O)[C@](C)(Cc1ccccc1)NC(=O)[C@H](CO)NC(=O)CNC(=O)[C@H](CCC(N)=O)NC(=O)[C@H](CO)NC(=O)[C@@H](N)Cc1c[nH]cn1)[C@@H](C)O)C(C)C)C(=O)N[C@@H](C)C(=O)N[C@@H](C)C(=O)N[C@@H](CCC(N)=O)C(=O)N[C@@H](CC(=O)O)C(=O)N[C@@](C)(Cc1ccccc1)C(=O)N[C@H](C(=O)N[C@@H](CCC(N)=O)C(=O)NC(C)(C)C(=O)N[C@@H](CC(C)C)C(=O)N[C@@H](CCC(=O)O)C(=O)N[C@@H](C)C(N)=O)C(C)C)C(=O)O)C(=O)O [Peptide 92] (H-HSQGS[αMeF]TSDVSK[Aib]LDSK([PEG2-PEG2-γGlu-γGlu-Stearoyl])AAQD[αMeF]VQ[Aib]LEA-NH2; N-terminus assumed) | – | 24.1 | 10.9 pM
CCCCCCCCCCCCCCCCCC(=O)N[C@@H](CCC(=O)N[C@@H](CCC(=O)NCCOCCOCCC(=O)NCCOCCOCCC(=O)NCCCC[C@H](NC(=O)[C@H](CO)NC(=O)[C@H](CC(=O)O)NC(=O)[C@H](CC(C)C)NC(=O)C(C)(C)NC(=O)[C@H](CCCCN)NC(=O)[C@H](CO)NC(=O)[C@@H](NC(=O)[C@H](CC(=O)O)NC(=O)[C@H](CO)NC(=O)[C@@H](NC(=O)[C@](C)(Cc1ccccc1)NC(=O)[C@H](CO)NC(=O)CNC(=O)[C@H](CCC(N)=O)NC(=O)[C@H](CO)NC(=O)[C@@H](N)Cc1c[nH]cn1)[C@@H](C)O)C(C)C)C(=O)N[C@@H](C)C(=O)N[C@@H](C)C(=O)N[C@@H](CCC(N)=O)C(=O)N[C@@H](CC(=O)O)C(=O)N[C@@](C)(Cc1ccccc1)C(=O)N[C@H](C(=O)N[C@@H](CCC(N)=O)C(=O)NC(C)(C)C(=O)N[C@@H](CC(C)C)C(=O)N[C@@H](C)C(=O)N[C@@H](CC(N)=O)C(N)=O)C(C)C)C(=O)O)C(=O)O [Peptide 93] (H-HSQGS[αMeF]TSDVSK[Aib]LDSK([PEG2-PEG2-γGlu-γGlu-Stearoyl])AAQD[αMeF]VQ[Aib]LAN-NH2; N-terminus assumed) | – | 37.4 | 8.92 pM
